In PMC6268785, “Inhibition of PCAF Histone Acetyltransferase, Cytotoxicity and Cell Permeability of 2-Acylamino-1-(3- or 4-Carboxy-phenyl)benzamides” (Molecules, 2012):
Read-outs that look alike come from different tables or passages of the source.

Key:
HSF (normal cell) = assay: SRB cytotoxicity assay, HSF normal cell line; type: cell-based; conditions: read-out: IC50 against HSF
Description: (§1) The cell lines used were HSF (normal cell), HT-29 (human colon cancer), HCT-116 (human colon cancer), MDA-231 (human breast cancer), A549 (human lung cancer), Hep3B (human hepatoma cancer), HeLa (human cervical cancer) and Caki (human kidney cancer) supplied from the Korean Cell Line Bank (Daejeon, Korea). Cells were grown as monolayer cultures in the T-175 flasks (Costar), were subcultured twice a week at 37 °C in an atmosphere containing 5% CO2 in air and 100% relative humidity and maintained at low passage number (5 to 20). RPMI medium 1640, Dulbecco’s modified eagle medium (DMEM, Gibco), fetal bovin serum, (FBS, Gibco), penicillin-streptomycin (P-S, Gibco), phosphate buffered saline pH 7.4 (PBS, Gibco), 0.25% trypsin-EDTA (Gibco), 0.4% trypan blue, dimethyl sulfoxide (DMSO) (Sigma-Aldrich), trichloroacetic acid (Sigma-Aldrich) and sulforhodamine B (SRB) (Sigma-Aldrich) were used.
(§2) Adherent cells at the logarithmic growth phase were detached the by an addition of 3 mL of trypsin-EDTA (1:250) mixture, and they were incubated for 5 min at 37 °C. The cells were plated (200 μL per well) in 96 well flat-bottom microplates at densities of 3 × 10^3 cells per well. The cells were plated in sextuplicate (six replicate wells per cell density) and experiments were performed three times. Microplates were left for 6 h at 37 °C, so that the cells were able to attach to the bottom of the wells before the fixation protocol was carried out.
(§3) […]. Then, cold (4 °C) 50% TCA (50 μL) was added to the top of 200 μL culture medium in each well to produce a final TCA concentration of 10%. Microplates were left for 30 min at 4 °C, and subsequently, they were washed five times with deionized water. Microplates were then left to dry at room temperature for at least 24 h.
(§4) The SRB assay was carried out as previously described. In brief, 0.4% (w/v) sulforhodamine B (70 μL) in acetic acid solution were added to each well and left at room temperature for 20 min. SRB was removed and the plates washed five times with 1% acetic acid before air drying. Bound SRB was solubilized with 10 mM unbuffered Tris-base solution (200 μL) and the plates were left on a plate shaker for at least 10 min. Absorbance was read in a 96-well plate reader at 492 nm subtracting the background measurement at 620 nm. The test optical density (OD) value was defined as the absorbance of each individual well, minus the blank value.

A549 (human lung cancer) = assay: SRB cytotoxicity assay, A549; type: cell-based; conditions: read-out: IC50 against A549
Description: as §1, §2, §3, §4

[1] = test system: MDA-231 (human breast cancer); assay: SRB cytotoxicity assay, MDA-231; type: cell-based; conditions: read-out: IC50 against MDA-231
Description: as §1, §2, §3, §4

[2] = test system: Caki (human kidney cancer); assay: SRB cytotoxicity assay, Caki; type: cell-based; conditions: mean ± standard error, read-out: IC50 against Caki
Description: as §1, §2, §3, §4

PCAF HAT = biological target: T1, PCAF HAT (Homo sapiens, UniProt Q92831); assay: PCAF HAT inhibition assay (fluorescent, CPM detection of CoA-SH); type: biochemical; conditions: for inhibition at 100 µM: read-out: PCAF HAT inhibition (%)
T1 construct: purchased Cayman Co., Ann Arbor, MI, USA
T1 sequence (Q92831 492-658 limits assumed): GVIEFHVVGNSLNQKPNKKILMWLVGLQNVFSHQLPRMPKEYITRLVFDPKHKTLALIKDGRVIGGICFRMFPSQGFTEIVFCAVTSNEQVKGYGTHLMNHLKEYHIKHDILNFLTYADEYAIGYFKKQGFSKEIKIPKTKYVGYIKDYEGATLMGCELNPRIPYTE
Description: The structural analogues were derived from anthranilic acid by introducing the acyl chain at the 2- position, and 3- or 4-carboxyaniline at the 1-position, respectively. The ability of new compounds 8–19 to inhibit HAT activity was analyzed in vitro using PCAF HAT enzymatic kit (Cayman Co., Ann Arbor, MI, USA). Anacardic acid, a commercially available HAT inhibitor, was used as a positive control.
The PCAF HAT inhibition studies were performed using a fluorescent assay as described previously. The enzyme activity was measured by the detection of CoA-SH by the fluorescent dye 7-(diethylamino)-3-(4'-maleimidylphenyl)-4-methylcoumarin (CPM). In brief, assay buffer (15 μL), acetyl CoA (5 μL) and diluted PCAF (10 μL) were added to all the wells. Dimethylsulfoxide (DMSO, 5 μL) was added to 100% initial activity wells and the background wells, and inhibitor (100 μM, 5 μL) was added to the inhibitor wells. PCAF HAT peptide (20 μL) was added to all the wells except the background wells. The wells were incubated on a shaker for 5 minutes at room temperature and HAT stop reagent (50 μL) was added to all the wells including the background wells. HAT peptide (20 μL) was added to the background wells only. HAT developer (100 μL) was added to all the wells including the background wells and incubated for 20 minutes at room temperature. Then, read the plate using an excitation wavelength of 360–390 nm and an emission wavelength of 450–470 nm. Subtract the fluorescence of the background wells from the fluorescence of the 100% initial activity and the inhibitor wells. The percent inhibition for each sample was determined as follows: [drawing 2]

[3] = test system: HeLa (human cervical cancer); assay: SRB cytotoxicity assay, HeLa; type: cell-based; conditions: mean ± standard error, read-out: IC50 against HeLa
Description: as §1, §2, §3, §4

[4] = test system: HCT-116 (human colon cancer); assay: SRB cytotoxicity assay, HCT-116; type: cell-based; conditions: read-out: IC50 against HCT-116
Description: as §1, §2, §3, §4

[5] = test system: Hep3B (human hepatoma cancer); assay: SRB cytotoxicity assay, Hep3B; type: cell-based; conditions: mean ± standard error, read-out: IC50 against Hep3B
Description: as §1, §2, §3, §4

[6] = test system: HT-29 (human colon cancer); assay: SRB cytotoxicity assay, HT-29; type: cell-based; conditions: read-out: IC50 against HT-29
Description: as §1, §2, §3, §4

Caco-2 cell monolayers = assay: Caco-2 cell permeability assay; type: in vitro ADME, human; conditions: Caco-2, apical to basolateral, initial concentration 50 μM; mean ± SD
[7] = test system: seven human cancer cell lines; assay: SRB cytotoxicity assay, panel of seven cancer cell lines (summary in words); type: cell-based
Description: as §1
Adherent cells at the logarithmic growth phase were detached the by an addition of 3 mL of trypsin-EDTA (1:250) mixture, and they were incubated for 5 min at 37 °C. […]
The SRB assay was carried out as previously described. […] Absorbance was read in a 96-well plate reader at 492 nm subtracting the background measurement at 620 nm. The test optical density (OD) value was defined as the absorbance of each individual well, minus the blank value.

[8] = Homo sapiens, A549, mean ± standard error
[9] = Homo sapiens, MDA-MB-231, mean ± standard error
[10] = Homo sapiens, HCT-116, mean ± standard error
[11] = Homo sapiens, HT-29, mean ± standard error

PCAF HAT inhibition (%) (PCAF HAT; 100 μM compound) | Molecule | IC50 (HSF (normal cell)) | IC50 (A549 (human lung cancer); mean ± standard error) | IC50 ([1]; mean ± standard error) | IC50 [2] | IC50 [3] | IC50 ([4]; mean ± standard error) | IC50 [5] | IC50 ([6]; mean ± standard error) | other results
45% | 2-Decanoylamino-1-(3-carboxyphenyl)benzamide [Compound 13] | > 100 µM | > 100 µM | > 100 µM | > 100 µM | > 100 µM | > 100 µM | > 100 µM | > 100 µM | 
55% | 2-Decanoylamino-1-(4-carboxyphenyl)benzamide [Compound 12] | > 100 µM | > 100 µM | > 100 µM | 63.8 ± 2.39 µM | > 100 µM | > 100 µM | > 100 µM | > 100 µM | 
42% | 2-Dodecanoylamino-1-(3-carboxyphenyl)benzamide [Compound 15] | > 100 µM | > 100 µM | > 100 µM | > 100 µM | > 100 µM | > 100 µM | > 100 µM | > 100 µM | 
46% | 2-Dodecanoylamino-1-(4-carboxyphenyl)benzamide [Compound 14] | > 100 µM | > 100 µM | > 100 µM | > 100 µM | > 100 µM | 53.3 ± 2.05 µM | > 100 µM | > 100 µM | 
 | 2-Hexadecanoylamino-1-(3-carboxyphenyl)benzamide [Compound 19] | > 100 µM | 40.5 ± 3.59 µM | > 100 µM | 82.6 ± 5.89 µM | 36.9 ± 3.76 µM | 40.3 ± 4.3 µM | 43.8 ± 5.91 µM | 44.8 ± 2.98 µM | PCAF HAT inhibition (%) (PCAF HAT; 100 μM compound, 100 µM): 61%
 | 2-Hexanoylamino-1-(3-carboxyphenyl)benzamide [Compound 9] | > 100 µM | > 100 µM | > 100 µM | > 100 µM |  | > 100 µM | > 100 µM | > 100 µM | 
67% | 2-Hexanoylamino-1-(4-carboxyphenyl)benzamide [Compound 8] | > 100 µM | > 100 µM | > 100 µM | > 100 µM |  | > 100 µM | > 100 µM | > 100 µM | 
 | 2-Octanoylamino-1-(3-carboxyphenyl)benzamide [Compound 11] | > 100 µM | > 100 µM | > 100 µM | > 100 µM | > 100 µM | > 100 µM | > 100 µM | > 100 µM | PCAF HAT inhibition (%) (PCAF HAT; 100 μM compound, 100 µM): 52%
66% | 2-Octanoylamino-1-(4-carboxyphenyl)benzamide [Compound 10] | > 100 µM | > 100 µM | 51.8 ± 0.68 µM | 69.5 ± 7.16 µM | > 100 µM | > 100 µM | > 100 µM | > 100 µM | 
 | Nc1ccccc1C(=O)O [A, Anthranilic acid, reference compound] | > 100 µM |  |  |  |  |  |  |  | IC50 (A549 (human lung cancer); [8]): > 100 µM; IC50 [1, 9]: > 100 µM; IC50 ([2]; Homo sapiens): > 100 µM; inhibition at 100 µM (PCAF HAT): 34%; IC50 ([3]; Homo sapiens, HeLa): > 100 µM; cytotoxic activity against cancer cell lines (in words) [7]: inactive against most of cancer cell lines; IC50 [4, 10]: > 100 µM; IC50 ([5]; Homo sapiens, Hep3B): > 100 µM; IC50 [6, 11]: > 100 µM
 | CCCCCCCCCCCCCCCc1cccc(O)c1C(=O)O [AA, Anacardic acid, reference compound] | > 100 µM |  |  |  |  |  |  |  | IC50 (A549 (human lung cancer); [8]): 70.76 ± 0.41 µM; IC50 [1, 9]: 44.3 ± 4.2 µM; IC50 ([2]; Homo sapiens): > 100 µM; inhibition at 100 µM (PCAF HAT; 100 μM compound): 68%; IC50 [4, 10]: 96.3 ± 4.33 µM; IC50 ([5]; Homo sapiens, Hep3B): > 100 µM; IC50 [6, 11]: 60.4 ± 6.36 µM

Molecule | PCAF HAT inhibition (%) (PCAF HAT; 100 μM compound) | IC50 (HSF (normal cell)) | IC50 (A549 (human lung cancer); mean ± standard error) | IC50 ([1]; mean ± standard error) | IC50 [2] | IC50 [3] | IC50 ([4]; mean ± standard error) | IC50 [5] | IC50 ([6]; mean ± standard error) | other results
2-Tetradecanoylamino-1-(3-carboxyphenyl)benzamide [Compound 17] | 79% | > 100 µM | 32.1 ± 1.36 µM | 62.43 ± 0.58 µM | 55.9 ± 5.09 µM | 55 ± 3.14 µM | 29.2 ± 3.86 µM | 57.52 ± 0.26 µM | 54.9 ± 3.49 µM | Measured Papp (Caco-2 cell monolayers): 71.48 ± 4.67 ×10^−6 cm/s
2-Tetradecanoylamino-1-(4-carboxyphenyl)benzamide [Compound 16] | 72% | > 100 µM | 46.2 ± 0.83 µM | 79.1 ± 3.27 µM | 63.08 ± 0.21 µM | 56.5 ± 0.87 µM | 43.9 ± 2.39 µM | 73.3 ± 9.61 µM | 54.8 ± 1.05 µM | Measured Papp (Caco-2 cell monolayers): 68.21 ± 3.56 ×10^−6 cm/s
